Tests used:
Format in all cases: cell-based
[1] = target: T1, KRAS G12D (Homo sapiens, UniProt P01116, G12D); test: KRAS G12D HiBit assay; settings: AsPc-1-KRAS (G12D)-HiBit-KI cell, compound treatment for 24 hours; for DC50: absolute DC50
T1 construct: AsPc-1-KRAS (G12D)-HiBit-KI cell (Pharmaron); host or cells: AsPc-1-KRAS (G12D)-HiBit-KI cells (HiBiT knock-in at the endogenous KRAS locus)
In short: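 HiBiT luminescence, detected by adding lytic buffer, substrate and LgBiT protein, served as the KRAS G12D read-out. Compounds, serially diluted 3-fold over 10 points from 0.3 mM DMSO stock, were on cells for 24 h; percent inhibition normalized to cells given 0.1% DMSO only.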

[2] = target: T2, KRAS G12V (Homo sapiens, UniProt P01116, G12V); test: KRAS G12V HiBit assay; settings: SW620-KRAS (G12V)-HiBit-KI cells, compound treatment for 24 hours, class symbols
T2 construct: SW620-KRAS (G12V)-HiBit-KI cell (Pharmaron); host or cells: SW620-KRAS (G12V)-HiBit-KI cells (HiBiT knock-in at the endogenous KRAS locus)
In short: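 Luminescence from lytic Nano-Glo HiBiT detection with LgBiT read KRAS G12V levels after 24 h compound exposure. Dilutions were 10-point, 3-fold, from a 0.3 mM DMSO stock. Degradation activity was normalised to cells given 0.1% DMSO alone.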

[3] = target: T3, KRAS (Homo sapiens, UniProt P01116); test: KRASamp MSD assay; settings: KE39 (KRAS amplified) cells, treated with test compounds for 24 hr, MSD readout of KRAS degradation
T3 construct: endogenous in cells; host or cells: KE39 (KRAS amplified) cells
Procedure: KE39 (KRAS amplified) cells were cultured in RPMI 1640 medium (Gibco, 11875093), seeded into 96 well plate and treated with test compounds for 24 hr. The cells were washed with PBS and lysed in plate for 1 hr at 4° C. with agitation in RIPA buffer (Cat No. BP-115D) supplemented with protease and phosphatase inhibitor cocktail. The lysates were loaded into MSD plate coated with KRAS capture antibody (LSBio, C175665, 1:1000) for 1 h at RT with agitation. The plate was then washed three times with TBST and incubated with KRAS detection antibody (Abcam, Ab275876. 1:2000) for 1 h at RT. After washing three times with TBST, the plate was incubated with secondary detection antibody GAR (1:500) for 1 hr at RT followed with 3×TBST washing. 2×MSD reading buffer was added into individual wells and the plate was finally read by MSD reader (MSD, SQ 120 MM). The recombinant WT KRAS protein was used for standard curve generation and protein quantification. The degradation activity was calculated using the following formula: […]
DC50 was calculated by fitting the curve using GraphPad Prism v8.0.2 (analysis 263): […]

T2 sequence (P01116 1-188 isoform P01116-2 G12V): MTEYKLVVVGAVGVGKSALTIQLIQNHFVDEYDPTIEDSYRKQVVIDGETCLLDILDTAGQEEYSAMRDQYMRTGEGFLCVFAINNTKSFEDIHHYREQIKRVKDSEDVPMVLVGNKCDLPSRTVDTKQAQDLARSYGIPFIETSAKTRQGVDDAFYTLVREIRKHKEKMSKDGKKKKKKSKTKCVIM
T3 sequence (P01116 1-188 isoform P01116-2): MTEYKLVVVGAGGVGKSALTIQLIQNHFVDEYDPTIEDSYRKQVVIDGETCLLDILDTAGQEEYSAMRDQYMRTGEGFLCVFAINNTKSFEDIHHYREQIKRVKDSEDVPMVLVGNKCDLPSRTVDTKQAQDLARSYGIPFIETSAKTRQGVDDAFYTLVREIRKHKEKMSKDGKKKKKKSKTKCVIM
T1 sequence (P01116 1-188 isoform P01116-2 G12D): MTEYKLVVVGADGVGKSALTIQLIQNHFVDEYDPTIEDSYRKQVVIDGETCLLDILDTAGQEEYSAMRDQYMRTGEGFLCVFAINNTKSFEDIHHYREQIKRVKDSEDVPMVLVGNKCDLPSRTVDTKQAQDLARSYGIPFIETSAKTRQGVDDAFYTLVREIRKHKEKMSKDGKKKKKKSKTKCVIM

Compound	DC50 ([1]; class symbols)	Average Dmax ([1]; class symbols)	DC50 [2]	DC50 [3]	Dmax ([1]; class symbols)	DC50 ([1]; numeric bounds given in place of class symbols)
C#Cc1c(F)ccc2cc(O)cc(-c3ncc4c(N5CCC[C@@](C)(O)C5)nc(OC[C@@]56CCCN5[C@H](COC(=O)N5CCC(CN7CCC(c8ccc9c(c8)n(C)c(=O)n9C8CCC(=O)NC8=O)CC7)CC5)CC6)nc4c3F)c12 (stereo partly drawn) [Compound 4, [(3S,8S)-8-[[7-(8-Ethynyl-7-fluoro-3-hydroxy-1-naphthyl)-8-fluoro-4-[(3R)-3-hydroxy-3-methyl-1-piperidyl]pyrido[4,3-d]pyrimidin-2-yl]oxymethyl]-1,2,3,5,6,7-hexahydropyrrolizin-3-yl]methyl4-[[4-[1-(2,6-dioxo-3-piperidyl)-3-methyl-2-oxo-benzimidazol-5-yl]-1-piperidyl]methyl]piperidine-1-carboxylate]	< 100 nM	A (Dmax greater than 50%)	< 10 nM	< 1 nM	–	–
CCc1c(F)ccc2cc(O)cc(-c3ncc4c(N5CCC[C@@](C)(O)C5)nc(OC[C@@]56CCCN5[C@H](COC(=O)N5CCC(CN7CCC(c8cc9c(cc8F)c(C8CCC(=O)NC8=O)nn9C)CC7)CC5)CC6)nc4c3F)c12 (stereo partly drawn) [Compound 102, ((3S,7aS)-7a-(((7-(8-ethyl-7-fluoro-3-hydroxynaphthalen-1-yl)-8-fluoro-4-((R)-3-hydroxy-3-methylpiperidin-1-yl)pyrido[4,3-d]pyrimidin-2-yl)oxy)methyl)hexahydro-1H-pyrrolizin-3-yl)methyl4-((4-(3-(2,6-dioxopiperidin-3-yl)-5-fluoro-1-methyl-1H-indazol-6-yl)piperidin-1-yl)methyl) piperidine-1-carboxylate]	< 100 nM	–	< 10 nM	< 1 nM	> 50%	–
CCc1c(F)ccc2cc(O)cc(-c3ncc4c(N5CCCOCC5)nc(OC[C@@]56CCCN5[C@H](COC(=O)N5CCC7(CC5)CC(N5CCC(c8ccc9c(c8)n(C)c(=O)n9C8CCC(=O)NC8=O)CC5)C7)CC6)nc4c3F)c12 (stereo partly drawn) [Compound 489, ((3S,7aS)-7a-(((7-(8-ethyl-7-fluoro-3-hydroxynaphthalen-1-yl)-8-fluoro-4-(1,4-oxazepan-4-yl)pyrido[4,3-d]pyrimidin-2-yl)oxy)methyl)hexahydro-1H-pyrrolizin-3-yl)methyl 2-(4-(1-(2,6-dioxopiperidin-3-yl)-3-methyl-2-oxo-2,3-dihydro-1H-benzo[d]imidazol-5-yl)piperidin-1-yl)-7-azaspiro[3.5]nonane-7-carboxylate]	< 100 nM	–	< 10 nM	< 1 nM	–	–
CCc1c(F)ccc2cc(O)cc(-c3ncc4c(N5CCC[C@@](C)(O)C5)nc(OC[C@@]56CCCN5[C@H](COC(=O)N5CCC7(CCC(CN8CCC(c9ccc%10c(c9)n(C)c(=O)n%10C9CCC(=O)NC9=O)CC8)CC7)CC5)CC6)nc4c3F)c12 (stereo partly drawn) [Compound 466, ((3S,7aS)-7a-(((7-(8-ethyl-7-fluoro-3-hydroxynaphthalen-1-yl)-8-fluoro-4-((R)-3-hydroxy-3-methylpiperidin-1-yl)pyrido[4,3-d]pyrimidin-2-yl)oxy)methyl)hexahydro-1H-pyrrolizin-3-yl)methyl 9-((4-(1-(2,6-dioxopiperidin-3-yl)-3-methyl-2-oxo-2,3-dihydro-1H-benzo[d]imidazol-5-yl)piperidin-1-yl)methyl)-3-azaspiro[5.5]undecane-3-carboxylate]	< 100 nM	–	< 10 nM	< 1 nM	–	–
CCc1c(F)ccc2cc(O)cc(-c3ncc4c(N5CCC[C@@](C)(O)C5)nc(OC[C@]56CCCN5[C@H](COC(=O)NC5CCN(c7ccc8c(c7)n(C)c(=O)n8C7CCC(=O)NC7=O)CC5)CC6)nc4c3F)c12 (stereo partly drawn) [Compound 308, ((3S,7aR)-7a-(((7-(8-ethyl-7-fluoro-3-hydroxynaphthalen-1-yl)-8-fluoro-4-((R)-3-hydroxy-3-methylpiperidin-1-yl)pyrido[4,3-d]pyrimidin-2-yl)oxy)methyl)hexahydro-1H-pyrrolizin-3-yl)methyl (1-(1-(2,6-dioxopiperidin-3-yl)-3-methyl-2-oxo-2,3-dihydro-1H-benzo[d]imidazol-5-yl)piperidin-4-yl)carbamate]	–	–	10 to 100 nM	< 1 nM	–	> 100 nM
CCc1c(F)ccc2cc(O)cc(-c3ncc4c(N5CCC[C@@](C)(O)C5)nc(OCC56CCCN5[C@@H](COC(=O)N5CCC(CN7CCC(c8ccc9c(c8)n(C)c(=O)n9C8CCC(=O)NC8=O)CC7)CC5)CC6)nc4c3F)c12 (stereo partly drawn) [Compound 121, (cis-7a-(((7-(8-Ethyl-7-fluoro-3-hydroxynaphthalen-1-yl)-8-fluoro-4-((R)-3-hydroxy-3-methylpiperidin-1-yl)pyrido[4,3-d]pyrimidin-2-yl)oxy)methyl)hexahydro-1H-pyrrolizin-3-yl)methyl 4-((4-(1-(2,6-dioxopiperidin-3-yl)-3-methyl-2-oxo-2,3-dihydro-1H-benzo[d]imidazol-5-yl)piperidin-1-yl)methyl) piperidine-1-carboxylate]	< 100 nM	–	< 10 nM	1 to 10 nM	–	–
C#Cc1c(F)ccc2cc(O)cc(-c3ncc4c(N5CCC[C@@](C)(O)C5)nc(OC[C@@]56CCCN5[C@H](COC(=O)N5CCC7(CCC(CN8CCC(c9ccc%10c(c9)n(C)c(=O)n%10C9CCC(=O)NC9=O)CC8)CC7)C5)CC6)nc4c3F)c12 (stereo partly drawn) [Compound 454]	< 100 nM	–	< 10 nM	< 1 nM	–	–
CCc1c(F)ccc2cc(O)cc(-c3ncc4c(N5CCC[C@@](C)(O)C5)nc(OC[C@@]56CCCN5[C@H](COC(=O)N5CCC7(CC5)CCN(C5CCN(c8ccc9c(c8)n(C)c(=O)n9C8CCC(=O)NC8=O)CC5)C7)CC6)nc4c3F)c12 (stereo partly drawn) [Compound 456, ((3S,7aS)-7a-(((7-(8-ethyl-7-fluoro-3-hydroxynaphthalen-1-yl)-8-fluoro-4-((R)-3-hydroxy-3-methylpiperidin-1-yl)pyrido[4,3-d]pyrimidin-2-yl)oxy)methyl)hexahydro-1H-pyrrolizin-3-yl)methyl 2-(1-(1-(2,6-dioxopiperidin-3-yl)-3-methyl-2-oxo-2,3-dihydro-1H-benzo[d]imidazol-5-yl)piperidin-4-yl)-2,8-diazaspiro[4.5]decane-8-carboxylate]	< 100 nM	–	< 10 nM	1 to 10 nM	–	–
CCc1c(F)ccc2cc(O)cc(-c3ncc4c(N5CCC[C@@](C)(O)C5)nc(OC[C@@]56CCCN5[C@H](COC(=O)N5CCC7(CC5)CC(CN5CCC(c8ccc9c(c8)n(C)c(=O)n9C8CCC(=O)NC8=O)CC5)C7)CC6)nc4c3F)c12 (stereo partly drawn) [Compound 417, ((3S,7aS)-7a-(((7-(8-ethyl-7-fluoro-3-hydroxynaphthalen-1-yl)-8-fluoro-4-((R)-3-hydroxy-3-methylpiperidin-1-yl)pyrido[4,3-d]pyrimidin-2-yl)oxy)methyl)hexahydro-1H-pyrrolizin-3-yl)methyl 2-((4-(1-(2,6-dioxopiperidin-3-yl)-3-methyl-2-oxo-2,3-dihydro-1H-benzo[d]imidazol-5-yl)piperidin-1-yl)methyl)-7-azaspiro[3.5]nonane-7-carboxylate]	< 100 nM	–	< 10 nM	< 1 nM	–	–
C#Cc1c(F)ccc2cc(O)cc(-c3ncc4c(N5CCCCC5)nc(OC[C@@]56CCCN5[C@H](COC(=O)N5CCC(CN7CCC(c8ccc9c(c8)n(C)c(=O)n9C8CCC(=O)NC8=O)CC7)CC5)CC6)nc4c3F)c12 (stereo partly drawn) [Compound 122, ((3S,7aS)-7a-(((7-(8-Ethynyl-7-fluoro-3-hydroxynaphthalen-1-yl)-8-fluoro-4-(piperidin-1-yl)pyrido[4,3-d]pyrimidin-2-yl)oxy)methyl)hexahydro-1H-pyrrolizin-3-yl)methyl4-((4-(1-(2,6-dioxopiperidin-3-yl)-3-methyl-2-oxo-2,3-dihydro-1H-benzo[d]imidazol-5-yl)piperidin-1-yl)methyl) piperidine-1-carboxylate]	< 100 nM	–	< 10 nM	< 1 nM	> 50%	–

— patent US12599672B2, “KRAS proteolysis targeting chimeras” (PAQ Therapeutics Inc., priority 2023, dated 2026)
